Residues, ends and D or L forms follow the SMILES beside them. *: point of attachment. Cbz = O=C(OCc1ccccc1)*; CH2F = FC*
How the values were obtained:
iC2C12-DUX4 myoblasts = experiment: Cell viability (ATP assay, CellTiter-Glo) of dox-induced iC2C12-DUX4 myoblasts with death inhibitors; assay type: cell-based, mouse; conditions: for increase in the number of viable cells: inhibitor present; for optimal dose from dose response: with or without doxycycline 200 ng/ml, 24 hours after dox induction
Procedure: (A) Cell viability of iC2C12-DUX4 myoblasts at 48 h of induction without or with dox (200 ng/ml) and treatment with various concentrations of the pan-caspase inhibitor Z-VAD (μM). […] Ctrl: DMSO alone.
FIG. 10: Role of necroptosis in the DUX4 mediated cell death. Several death inhibitors were added at different concentrations alone to iC2C12 myoblasts in presence or not of Doxycycline 200 ng/ml.
For myoblast experiments, iC2C12-Dux4 were seeded into white 96-well plates (3000 cells per well) in growth medium. After 24 h, DUX4 expression was induced by adding doxycycline (Sigma-Aldrich) at a final concentration of 50 to 1000 ng/mL. For myotubes experiments, iC2C12-Dux4 were seeded into white 96-well plates (1500 cells per well) in growth medium. After 48 h, cells were differentiated with DMEM, 2% horse serum and 10 μg/mL insulin. […] Inhibition of apoptosis and/or necroptosis was simultaneously realized to DUX4 induction for 24 h using 20 μM of pan-caspase inhibitor Z-VAD.fmk (Merk Chemicals), 30 μM Necrostatin-1, 3 μM GSK872, 0.2 Cyclosporin A (Cambridge Bioscience). Cell survival was determined by CellTiter-Glo luminescent cell viability assay (Promega), membrane permeability by CytoTox-Glo cytotoxicity assay (Promega) and caspase activation by Caspase-Glo 3/7 Assay (Promega) according to the manufacturer's instructions. Luminescence was read by a microplate reader Tecan.
The iC2C12-DUX4 viability was assessed for 2 different doses of dox and the results are expressed as the percentage of cells alive in the presence of the different compounds compared to the condition without them. Z-VAD was always added to eliminate any bias linked to caspases 3/7 activation/synergic effect.

iC2C12-DUX4 myotubes = experiment: cells; assay type: cell-based, mouse
Procedure: FIG. 4: Ripk3 inhibition decreases DUX4-mediated cell death in iC2C12-DUX4 myotubes. (A) iC2C12-DUX4 viability in presence of dox 1000 ng/ml and treated with different doses of Z-VAD, Necrostatin-1 or GSK'872. (B) Cell viability in presence of dox 1000 ng/ml with the different compounds alone or in combination. Z: Z-vad (20 μM); N: necrostatin-1 (30 μM), N+: necrostatin-1 (90 μM), G: GSK'872 (2 μM); G+: GSK'872 (4 μM).
(§1) Inducible iC2C12-Dux4 (Bosnakovski, 2008) were cultured in DMEM high glucose with GlutaMAX and no Sodium Pyruvate (Gibco), 20% fetal bovine serum, and 800 μg/mL G418 (Gibco). For myoblast experiments, iC2C12-Dux4 were seeded into white 96-well plates (3000 cells per well) in growth medium. After 24 h, DUX4 expression was induced by adding doxycycline (Sigma-Aldrich) at a final concentration of 50 to 1000 ng/mL. For myotubes experiments, iC2C12-Dux4 were seeded into white 96-well plates (1500 cells per well) in growth medium. After 48 h, cells were differentiated with DMEM, 2% horse serum and 10 μg/mL insulin. DUX4 expression was induced after 4 days of differentiation to not disturb myotube formation (Bosnakovski, 2008). Inhibition of apoptosis and/or necroptosis was simultaneously realized to DUX4 induction for 24 h using 20 μM of pan-caspase inhibitor Z-VAD.fmk (Merk Chemicals), 30 μM Necrostatin-1, 3 μM GSK872, 0.2 Cyclosporin A (Cambridge Bioscience). Cell survival was determined by CellTiter-Glo luminescent cell viability assay (Promega), membrane permeability by CytoTox-Glo cytotoxicity assay (Promega) and caspase activation by Caspase-Glo 3/7 Assay (Promega) according to the manufacturer's instructions. Luminescence was read by a microplate reader Tecan.
The effects of the different inhibitors on iC2C12-DUX4 myotubes were investigated. Again, the results are expressed as the percentage of live cells in the presence of the different compounds compared to the control condition without. No effect of Z-VAD were observed arguing against a major role of caspases in DUX4-mediated toxicity (FIG. 4A). When the cells were cultivated with necrostatin-1 in the presence of dox (1000 ng/ml), necrostatin-1 concentrations […] 60 μM conferred a protection against cell death (up to 60%±6 of viable cells in presence of 60 μM necrostatin-1 compared to 39%±1 without, FIG. 4A), necrostatin-1 concentrations of 150 or 300 μM leading to up to 85%±2 viable cells (FIG. 4A). […] The different compounds were next added separately or together to iC2C12-DUX4 myotubes that were incubated with dox (1000 ng/ml). […] Indeed, at low (2 μM) or high (4 μM) concentration, GSK'872 increased cell viability by 2.1 fold (FIG. 4D). […] Ripk3 but also to a lesser extent Ripk1, participated in DUX4-mediated cell toxicity.

[1] = tested on: Cre-inducible FLExDUX4 mice; experiment: In vivo GSK'872 treatment of tamoxifen-induced Cre-inducible FLExDUX4 mice; set-up: species or system mouse; conditions: GSK'872 2 mg/kg for 5 days IP; tamoxifen 10 mg/kg for 2 days IP; mice killed at 7 weeks
Procedure: Mice were killed at the age of 7 weeks. (A) Total body weight was measured at day 0 and 7. Y-axis represents the weight after tamoxifen at D7 relative to the weight before tamoxifen injection at DO. (BC) Weights of the tibialis anterior (TA) (B) and quadriceps (C) were measured at D7. (DE) Expression levels of 2 genes (Tm7sf4 (D) and DuxBl (E)) downstream of DUX4 were measured in the quadriceps. Y-axis represents arbitrary units relative to Psma2. • * P<0.05, **P<0.01, ***P<0.001, one-way ANOVA followed by a Tukey's multiple comparison test.
Three-week-old animals were weighted 3 times a week, after weaning. The tamoxifen (MP Biomedicals) injections were realized according to Jones et al (Jones, 2018). Six-week-old mice were injected (IP) with Tamoxifen (TMX) on two consecutive days for a final concentration of 10 mg/kg. Following TMX injection, animals were daily weighed, and sacrificed after a week. Muscles were harvested and frozen in liquid nitrogen or liquid-nitrogen-cooled isopentane for further analysis.

[2] = tested on: necroptotic genes (Ripk1, Ripk3 and Mlk1) and DUX4-network genes (Tm7sf4, mDuxb1 and Wfdc3); experiment: mRNA expression of necroptotic and DUX4-network genes in treated Actal Cre-FLEx DUX4 mice; assay type: in vivo, mouse
Procedure: Dabrafenib (30 mg/kg) was given by oral (p.o.) gavage to 4-5 week old Actal Cre-FLEx DUX4 animals 5 times/week for 4 weeks. Tamoxifen was intraperitoneally weakly injected (2 mg/kg). […] Expression of necroptotic genes (Ripk1, Ripk3 and Mlk1) and DUX4-network genes (Tm7sf4, mDuxb1 and Wfdc3) were measured.
For muscles, cryopreserved tissues were transferred in tube containing 1.4 mm ceramic beads (FastPrep, MP biomedicals, UK) plus 1 mL of Trizol (Thermo Fisher Scientific, Paisley, UK) and shaken at 10000 rpm for 40 s. Total RNAs from cells or tissue were extracted using Trizol (Thermo Fisher) according the manufacturer's protocol. The quantity of RNA was determined using a nanodrop ND-1000 spectrophotometer (Thermo Scientific, Wilmington, Del., USA). Reverse transcription was performed on 1 μg of total RNA in a 10 μL final volume (Roche Transcriptor First Strand cDNA Synthesis kit). Quantitative PCR (qPCR) was designed according to the MIQE standards. qPCRs were performed on a LightCycler 480 Real-Time PCR System (Roche) in a final volume of 9 with 0.2 μL of RT product, 0.4 μM each of forward and reverse primers (see Tables 2 and 3), and 4.5 μL of SYBRGreen Mastermix (Roche).
Dabrafenib (30 mg/kg) was administered by oral (p.o.) gavage to 4-5 week old animals 5 times/week for 4 weeks. Tamoxifen was intraperitoneally injected weakly (2 mg/kg).

Caspase 3/7 = experiment: Caspase-Glo 3/7 Assay in iC2C12-DUX4 cells; assay type: cell-based, mouse; conditions: Z-Vad 30 μM or 50 μM, different concentrations of doxycycline
Procedure: FIG. 9: Apoptosis is not involved in iC2C12-DUX4 death. (A) Cell viability on iC2C12-DUX4 myoblasts in the presence of different concentrations of DMSO induced a non-specific increase of cell survival. […] Caspase 3/7 activity was measured using the Caspase-Glo 3/7 Assay (Promega) according to the manufacturer's instructions.
as §1, with “Inhibition of apoptosis and/or necroptosis was simultaneously realized to DUX4 induction for 24 h using 20 μM of pan-caspase inhibitor Z-VAD.fmk (Merk Chemicals), 30 μM Necrostatin-1, 3 μM GSK872, 0.2 Cyclosporin A (Cambridge Bioscience).” left out

[3] = Mus musculus, Myotube, read-out: viable cells

## CC(C)S(=O)(=O)c1ccc2nccc(Nc3ccc4scnc4c3)c2c1 [GSK'872, Benzothiazol-5-yl-[6-(propane-2-sulfonyl)-quinolin-4-yl]-amine]
iC2C12-DUX4 myoblasts; iC2C12 myoblasts
  increase in the number of viable cells: 10%
iC2C12-DUX4 myoblasts; myoblasts
  optimal dose from dose response: 3 µM
iC2C12-DUX4 myotubes; [3]
  viability at 3 µM: 67%
  viability at 6 µM: 77%
iC2C12-DUX4 myotubes; iC2C12-DUX4 myotubes, GSK'872 in combination with Z-Vad
  increase of the number of viable cells: 2 fold
iC2C12-DUX4 myotubes; myotubes, dox 1000 ng/ml, GSK'872 low (2 μM) or high (4 μM) concentration
  increase of cell viability: 2.1 fold
[1]
  DUX4-mediated cell death in vivo: decreased DUX4-mediated cell death in vivo

## CC(C)(C)c1nc(-c2cccc(NS(=O)(=O)c3c(F)cccc3F)c2F)c(-c2ccnc(N)n2)s1 [dabrafenib, N-{3-[5-(2-aminopyrimidin-4-yl)-2-tert-butylthiazol-4-yl]-2-fluorophenyl}-2,6-difluorobenzenesulfonamide]
[2]; dabrafenib 30 mg/kg p.o. 5 times/week for 4 weeks, 4-5 week old animals, tamoxifen 2 mg/kg
  mean expression of Ripk1, Ripk3, Mlk1, Tm7sf4, mDuxb1 and Wfdc3 relative to untreated control animals: decreased mean expression of almost all of these genes

## CN1C(=O)C(Cc2c[nH]c3ccccc23)NC1=S (stereo not shown) [necrostatin-1, 5-(1H-indol-3-ylmethyl)-3-methyl-2-sulfanylideneimidazolidin-4-one]
iC2C12-DUX4 myoblasts; iC2C12 myoblasts
  increase in the number of viable cells: 20%
iC2C12-DUX4 myoblasts; myoblasts, 200 ng/ml dox, necrostatin-1 present, Z-VAD always added
  increase of cells survival: 34%±20
iC2C12-DUX4 myoblasts; myoblasts
  optimal dose from dose response: 30 µM
iC2C12-DUX4 myotubes; [3]
  viability at 60 µM: 60%

## Nc1cccc2c(=O)[nH][nH]c(=O)c12.[Na] [galavit, 3-aminophthalhydrazide monosodium salt]
[2]; galavit 4.5 mg/kg IP daily for 3 days, 7-8 week old males, tamoxifen 10 mg/kg day 0 and 1
  mean expression of Ripk1, Ripk3, Mlk1, Tm7sf4, mDuxb1 and Wfdc3 relative to untreated control animals: decreased mean expression of almost all of these genes

## COC(=O)C[C@H](NC(=O)[C@H](C)NC(=O)[C@@H](NC(=O)OCc1ccccc1)C(C)C)C(=O)CF [Z-VAD] (Cbz-Val-Ala-Asp(OMe)-CH2F)
iC2C12-DUX4 myoblasts; iC2C12 myoblasts, addition of Z-Vad
  percentage of viable cells: did not modify the percentage of viable cells
iC2C12-DUX4 myoblasts; myoblasts, 200 ng/ml dox, different doses of Z-VAD
  cell survival with and without Z-VAD: No change in cell survival
iC2C12-DUX4 myotubes; iC2C12-DUX4 myotubes, Z-vad added in vitro
  cell survival: did not increase cell survival
iC2C12-DUX4 myotubes; myotubes, dox 1000 ng/ml, Z-VAD alone (20 μM)
  increase of cell survival: 10%±10
iC2C12-DUX4 myotubes; myotubes, dox 1000 ng/ml, different doses of Z-VAD
  effect on live cells: No effect
Caspase 3/7
  caspase 3/7 activity after DUX4 expression: correctly inhibited

From US20230277538A1, “THERAPEUTICS FOR THE TREATMENT OF FSHD” (UCL BUSINESS LTD, priority 2020, published 2023)
